Reference: patent publication EP4790066A1, “GLP-1R/GIPR/GCGR TRIPLE AGONIST ANALOGUE AND USE THEREOF” (Shenzhen Bay Laboratory, priority 2023, dated 2025)
*1 amine or outer side, *2 acyl side, *3 side chain or, on linkers, in order; H or OH if unused. Where a SMILES comes first, the peptide text is derived from it. Bridges are numbered along the chain shown (N, C = ends). [ ]: non-standard residue; d: D form. X1 = O=C(O)CCCCCCCCCCCCCCCCCCC(=O)N[C@@H](CCCCNC(=O)COCCOCCNC(=O)COCCOCCNC(=O)CCC(=O)N(CCNC(=O)C[*:1])CCNC(=O)C[*:2])C(=O)O; Phe(2-F) = N[C@@H](Cc1ccccc1F)C(=O)O; αMeL = CC(C)C[C@](C)(N)C(=O)O; αMeK = C[C@](N)(CCCCN)C(=O)O; αMeS = C[C@](N)(CO)C(=O)O; Iva = CC[C@](C)(N)C(=O)O; Dab = NCC[C@H](N)C(=O)O; Aib = CC(C)(N)C(=O)O

Legend:
Type in all cases: cell-based
GCGR = biological target: T1, GCGR (Homo sapiens, UniProt P47871); assay: CreLuc method (CRE-luciferase reporter), 293HEK/pGM-CREB-L-Luc/GCGR pool; conditions: 6 h incubation, read-out: EC50 (pM) for each receptor GCGR
T1 construct: expressed in transfected cells
T1 sequence (P47871 26-477, species assumed): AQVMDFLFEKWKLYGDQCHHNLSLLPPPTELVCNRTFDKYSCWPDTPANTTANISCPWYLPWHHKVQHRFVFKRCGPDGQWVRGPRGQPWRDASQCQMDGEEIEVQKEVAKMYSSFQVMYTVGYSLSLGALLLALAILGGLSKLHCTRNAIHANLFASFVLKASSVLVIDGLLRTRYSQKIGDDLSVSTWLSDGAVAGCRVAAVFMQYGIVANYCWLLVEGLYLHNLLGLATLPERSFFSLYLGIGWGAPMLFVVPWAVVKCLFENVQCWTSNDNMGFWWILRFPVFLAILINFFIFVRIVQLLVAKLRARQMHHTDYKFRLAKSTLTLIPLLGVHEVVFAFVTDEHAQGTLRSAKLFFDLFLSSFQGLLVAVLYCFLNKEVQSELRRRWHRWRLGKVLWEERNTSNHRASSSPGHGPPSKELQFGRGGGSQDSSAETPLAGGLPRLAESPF
Procedure: (§1) 1. Insulinotropic analogues can bind to the target receptor on the cell membrane, activate the cAMP response element (CRE), and initiate the expression of downstream luciferase. The expression level is positively correlated with the biological activity of the analogue being tested. After activation, luciferase substrate is added for chemiluminescence detection, and the luminescence intensity is determined to characterize the biological activity of the test compounds. Therefore, the target peptide derivatives (or polypeptide derivatives, i.e., TG1-TG94) prepared in Example 1 and Example 2 can be tested by the CreLuc method. The specific steps are as follows: The stably transfected cell lines HEK293/pGM-CREB-L-Luc/GLP-1R pool, HEK293/pGM-CREB-L-Luc/GIPR pool, and 293HEK/pGM-CREB-L-Luc/GCGR pool were constructed. […] The corresponding test cells were digested (1 min), dispersed by pipetting, and centrifuged (1000 rpm, 5 min). The culture medium was discarded, and the cells were resuspended in freestyle medium, centrifuged again, collected, and counted. The cells were then diluted to a cell density of 5 x 10^5 cells/mL and then added to the detection wells of a 384-well plate (40 µL/20,000 cells/well). Echo was used to add the corresponding analyte dilution series. The cell plate was incubated at 37°C and 5% CO2 for 6 h, then ONE-GLO (20 µL/well) was added for detection. It was kept in the dark for 3 min, then a chemiluminescent microplate reader was used for determination. The plate was read within 30 min, and the determination results were recorded. […] Table 3: EC50 values for target peptide derivatives

GLP-1R = biological target: T2, GLP-1R (Homo sapiens, UniProt P43220); assay: CreLuc method (CRE-luciferase reporter), HEK293/pGM-CREB-L-Luc/GLP-1R pool; conditions: 6 h incubation, read-out: EC50 (pM) for each receptor GLP-1R
T2 construct: expressed in transfected cells
T2 sequence (P43220 24-463, species assumed): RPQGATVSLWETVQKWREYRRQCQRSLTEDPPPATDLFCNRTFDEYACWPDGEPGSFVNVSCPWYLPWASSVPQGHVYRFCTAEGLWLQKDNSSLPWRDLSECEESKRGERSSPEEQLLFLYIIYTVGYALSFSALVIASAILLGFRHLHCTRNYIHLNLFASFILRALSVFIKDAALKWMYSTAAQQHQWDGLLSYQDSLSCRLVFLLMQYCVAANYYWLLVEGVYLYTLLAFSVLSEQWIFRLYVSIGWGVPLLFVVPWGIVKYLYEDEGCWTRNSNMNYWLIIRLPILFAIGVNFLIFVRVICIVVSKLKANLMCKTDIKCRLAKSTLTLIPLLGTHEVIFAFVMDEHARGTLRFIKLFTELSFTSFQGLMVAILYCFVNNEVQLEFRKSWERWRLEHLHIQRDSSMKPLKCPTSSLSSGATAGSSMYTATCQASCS
Procedure: as §1

GIPR = biological target: T3, GIPR (Homo sapiens, UniProt P48546); assay: CreLuc method (CRE-luciferase reporter), HEK293/pGM-CREB-L-Luc/GIPR pool; conditions: 6 h incubation, read-out: EC50 (pM) for each receptor GIPR
T3 construct: expressed in transfected cells
T3 sequence (P48546 22-466): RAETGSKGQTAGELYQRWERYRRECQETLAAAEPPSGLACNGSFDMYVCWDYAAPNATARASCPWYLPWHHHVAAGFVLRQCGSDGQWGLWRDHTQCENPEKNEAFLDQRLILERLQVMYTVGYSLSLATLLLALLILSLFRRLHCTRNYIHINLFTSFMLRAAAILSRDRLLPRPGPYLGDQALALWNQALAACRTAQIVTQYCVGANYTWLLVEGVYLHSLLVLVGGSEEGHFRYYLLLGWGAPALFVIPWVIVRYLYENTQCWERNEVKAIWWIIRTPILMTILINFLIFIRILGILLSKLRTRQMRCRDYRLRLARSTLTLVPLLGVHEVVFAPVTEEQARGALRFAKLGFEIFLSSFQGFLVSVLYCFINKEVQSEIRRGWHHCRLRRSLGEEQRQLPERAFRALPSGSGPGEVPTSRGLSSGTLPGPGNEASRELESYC
Procedure: as §1

| Structure (SMILES) | EC50 (GCGR) | EC50 (GLP-1R) | EC50 (GIPR) |
| --- | --- | --- | --- |
| CC[C@H](C)[C@@H]1NC(=O)[C@H](Cc2ccccc2)NC(=O)[C@@H](NC(=O)C(C)(C)NC(=O)[C@H](CCC(N)=O)NC(=O)[C@H](C)NC(=O)[C@H](CCCCNC(C)=O)NC(=O)[C@H](CCCCN)NC(=O)[C@H](CC(=O)O)NC(=O)[C@H](CC(C)C)NC(=O)[C@](C)(CC(C)C)NC(=O)[C@@H](NC(=O)[C@H](CO)NC(=O)[C@H](Cc2ccc(O)cc2)NC(=O)[C@H](CC(=O)O)NC(=O)[C@H](CO)NC(=O)[C@@H](NC(=O)[C@H](Cc2ccccc2)NC(=O)[C@@H](NC(=O)CNC(=O)[C@H](CCNC(C)=O)NC(=O)C(C)(C)NC(=O)[C@@H](N)Cc2ccc(O)cc2)[C@@H](C)O)[C@@H](C)O)[C@@H](C)CC)CSCC(=O)NCCN(C(=O)CCC(=O)NCCOCCOCC(=O)NCCOCCOCC(=O)NCCCC[C@H](NC(=O)CCCCCCCCCCCCCCCCCCC(=O)O)C(=O)O)CCNC(=O)CSC[C@@H](C(=O)NCC(=O)NCC(=O)N2CCC[C@H]2C(=O)N[C@@H](CO)C(=O)N[C@@H](CO)C(=O)NCC(=O)N[C@@H](C)C(=O)N2CCC[C@H]2C(=O)N2CCC[C@H]2C(=O)N2CCC[C@H]2C(=O)N[C@@H](CO)C(N)=O)NC(=O)[C@H](CC(C)C)NC(=O)[C@H](CC(C)C)NC(=O)[C@H](Cc2ccc(O)cc2)NC(=O)[C@H](CCC(=O)O)NC1=O [TG41] (H-Y[Aib][Dab](Ac)GTFTSDYSI[αMeL]LDKK(Ac)AQ[Aib]CFIEYLLCGGPSSGAPPPS-NH2; linker 21-28 via X1) | 76.3 pM | 282 pM | 19.6 pM |
| CC[C@H](C)[C@@H]1NC(=O)[C@H](Cc2ccccc2)NC(=O)[C@@H](NC(=O)C(C)(C)NC(=O)[C@H](CCC(N)=O)NC(=O)[C@H](C)NC(=O)[C@H](CCCCNC(C)=O)NC(=O)[C@H](CCCCN)NC(=O)[C@H](CC(=O)O)NC(=O)[C@H](CC(C)C)NC(=O)[C@](C)(CC(C)C)NC(=O)[C@@H](NC(=O)[C@H](CO)NC(=O)[C@H](Cc2ccc(O)cc2)NC(=O)[C@H](CC(=O)O)NC(=O)[C@H](CO)NC(=O)[C@@H](NC(=O)[C@H](Cc2ccccc2)NC(=O)[C@@H](NC(=O)CNC(=O)[C@H](Cc2c[nH]cn2)NC(=O)C(C)(C)NC(=O)[C@@H](N)Cc2ccc(O)cc2)[C@@H](C)O)[C@@H](C)O)[C@@H](C)CC)CSCC(=O)NCCN(C(=O)CCC(=O)NCCOCCOCC(=O)NCCOCCOCC(=O)NCCCC[C@H](NC(=O)CCCCCCCCCCCCCCCCCCC(=O)O)C(=O)O)CCNC(=O)CSC[C@@H](C(=O)NCC(=O)NCC(=O)N2CCC[C@H]2C(=O)N[C@@H](CO)C(=O)N[C@@H](CO)C(=O)NCC(=O)N[C@@H](C)C(=O)N2CCC[C@H]2C(=O)N2CCC[C@H]2C(=O)N2CCC[C@H]2C(=O)N[C@@H](CO)C(N)=O)NC(=O)[C@H](CC(C)C)NC(=O)[C@H](CC(C)C)NC(=O)[C@H](Cc2ccc(O)cc2)NC(=O)[C@H](CCC(=O)O)NC1=O [TG42] | 99.4 pM | 477 pM | 21.3 pM |
| CC[C@H](C)[C@@H]1NC(=O)[C@H](Cc2ccccc2)NC(=O)[C@@H](NC(=O)[C@H](CCC(N)=O)NC(=O)[C@H](CCC(N)=O)NC(=O)[C@H](C)NC(=O)[C@H](CCCCNC(C)=O)NC(=O)[C@](C)(CCCCN)NC(=O)[C@H](CC(=O)O)NC(=O)[C@H](CC(C)C)NC(=O)[C@H](CC(C)C)NC(=O)[C@@H](NC(=O)[C@](C)(CO)NC(=O)[C@H](Cc2ccc(O)cc2)NC(=O)[C@H](CC(=O)O)NC(=O)[C@H](CO)NC(=O)[C@@H](NC(=O)[C@H](Cc2ccccc2F)NC(=O)[C@@H](NC(=O)CNC(=O)[C@H](CCC(N)=O)NC(=O)C(C)(C)NC(=O)[C@@H](N)Cc2ccc(O)cc2)[C@@H](C)O)[C@@H](C)O)[C@@H](C)CC)CSCC(=O)NCCN(C(=O)CCC(=O)NCCOCCOCC(=O)NCCOCCOCC(=O)NCCCC[C@H](NC(=O)CCCCCCCCCCCCCCCCCCC(=O)O)C(=O)O)CCNC(=O)CSC[C@@H](C(=O)NCC(=O)NCC(=O)N2CCC[C@H]2C(=O)N[C@@H](CO)C(=O)N[C@@H](CO)C(=O)NCC(=O)N[C@@H](C)C(=O)N2CCC[C@H]2C(=O)N2CCC[C@H]2C(=O)N2CCC[C@H]2C(=O)N[C@@H](CO)C(N)=O)NC(=O)[C@H](CC(C)C)NC(=O)[C@H](CC(C)C)NC(=O)[C@H](Cc2ccc(O)cc2)NC(=O)[C@H](CCC(=O)O)NC1=O [TG56] (H-Y[Aib]QGT[Phe(2-F)]TSDY[αMeS]ILLD[αMeK]K(Ac)AQQCFIEYLLCGGPSSGAPPPS-NH2; linker 21-28 via X1) | 681 pM | 197 pM | 39.5 pM |
| CC[C@H](C)[C@@H]1NC(=O)[C@H](Cc2ccccc2)NC(=O)[C@@H](NC(=O)C(C)(C)NC(=O)[C@H](CCC(N)=O)NC(=O)[C@H](C)NC(=O)[C@H](CCCCNC(C)=O)NC(=O)[C@H](CCCCN)NC(=O)[C@H](CC(=O)O)NC(=O)[C@H](CC(C)C)NC(=O)[C@](C)(CC)NC(=O)[C@@H](NC(=O)[C@H](CO)NC(=O)[C@H](Cc2ccc(O)cc2)NC(=O)[C@H](CC(=O)O)NC(=O)[C@H](CO)NC(=O)[C@@H](NC(=O)[C@H](Cc2ccccc2F)NC(=O)[C@@H](NC(=O)CNC(=O)[C@H](Cc2c[nH]cn2)NC(=O)C(C)(C)NC(=O)[C@@H](N)Cc2c[nH]cn2)[C@@H](C)O)[C@@H](C)O)[C@@H](C)CC)CSCC(=O)NCCN(C(=O)CCC(=O)NCCOCCOCC(=O)NCCOCCOCC(=O)NCCCC[C@H](NC(=O)CCCCCCCCCCCCCCCCCCC(=O)O)C(=O)O)CCNC(=O)CSC[C@@H](C(=O)NCC(=O)NCC(=O)N2CCC[C@H]2C(=O)N[C@@H](CO)C(=O)N[C@@H](CO)C(=O)NCC(=O)N[C@@H](C)C(=O)N2CCC[C@H]2C(=O)N2CCC[C@H]2C(=O)N2CCC[C@H]2C(=O)N[C@@H](CO)C(N)=O)NC(=O)[C@H](CC(C)C)NC(=O)[C@H](CC(C)C)NC(=O)[C@H](Cc2ccc(O)cc2)NC(=O)[C@H](CCC(=O)O)NC1=O [TG66] (H-H[Aib]HGT[Phe(2-F)]TSDYSI[Iva]LDKK(Ac)AQ[Aib]CFIEYLLCGGPSSGAPPPS-NH2; linker 21-28 via X1) | 201 pM | 435 pM | 34.7 pM |
| CC[C@H](C)[C@@H]1NC(=O)[C@H](Cc2ccccc2)NC(=O)[C@@H](NC(=O)C(C)(C)NC(=O)[C@H](CCC(N)=O)NC(=O)[C@H](C)NC(=O)[C@H](CCCCNC(C)=O)NC(=O)[C@H](CCCCN)NC(=O)[C@H](CC(=O)O)NC(=O)[C@H](CC(C)C)NC(=O)[C@](C)(CC(C)C)NC(=O)[C@@H](NC(=O)[C@H](CO)NC(=O)[C@H](Cc2ccc(O)cc2)NC(=O)[C@H](CC(=O)O)NC(=O)[C@H](CO)NC(=O)[C@@H](NC(=O)[C@H](Cc2ccccc2F)NC(=O)[C@@H](NC(=O)CNC(=O)[C@H](CCC(N)=O)NC(=O)C(C)(C)NC(=O)[C@@H](N)Cc2ccc(O)cc2)[C@@H](C)O)[C@@H](C)O)[C@@H](C)CC)CCCCNC(=O)CN(C(=O)CCCNC(=O)COCCOCCNC(=O)COCCOCCNC(=O)CC[C@H](NC(=O)CCCCCCCCCCCCCCCCCCC(=O)O)C(=O)O)CC(=O)NCCCC[C@@H](C(=O)NCC(=O)NCC(=O)N2CCC[C@H]2C(=O)N[C@@H](CO)C(=O)N[C@@H](CO)C(=O)NCC(=O)N[C@@H](C)C(=O)N2CCC[C@H]2C(=O)N2CCC[C@H]2C(=O)N2CCC[C@H]2C(=O)N[C@@H](CO)C(N)=O)NC(=O)[C@H](CC(C)C)NC(=O)[C@H](CC(C)C)NC(=O)[C@H](Cc2ccc(O)cc2)NC(=O)[C@H](CCC(=O)O)NC1=O [TG85] | 330 pM | 254 pM | 61.2 pM |
